Experiments:
human κ opioid receptor = human κ opioid receptor (Homo sapiens, UniProt P41145); assay: biochemical
human δ opioid receptor = human δ opioid receptor (Homo sapiens, UniProt P41143); assay: Opioid receptor binding assay, [3H]naltrindole (δ); conditions: Ki [3H]Naltrindole (δ), membranes of CHO cells expressing human δ opioid receptor; 0.2 nM [3H]naltrindole; mean ± S.E.
[1] = 1 mg/kg ip in mice; cited from earlier work
human μ opioid receptor = human μ opioid receptor (Homo sapiens, UniProt P35372); assay: Opioid receptor binding assay, [3H]DAMGO (μ)
Sequence of human μ opioid receptor (P35372 whole entry): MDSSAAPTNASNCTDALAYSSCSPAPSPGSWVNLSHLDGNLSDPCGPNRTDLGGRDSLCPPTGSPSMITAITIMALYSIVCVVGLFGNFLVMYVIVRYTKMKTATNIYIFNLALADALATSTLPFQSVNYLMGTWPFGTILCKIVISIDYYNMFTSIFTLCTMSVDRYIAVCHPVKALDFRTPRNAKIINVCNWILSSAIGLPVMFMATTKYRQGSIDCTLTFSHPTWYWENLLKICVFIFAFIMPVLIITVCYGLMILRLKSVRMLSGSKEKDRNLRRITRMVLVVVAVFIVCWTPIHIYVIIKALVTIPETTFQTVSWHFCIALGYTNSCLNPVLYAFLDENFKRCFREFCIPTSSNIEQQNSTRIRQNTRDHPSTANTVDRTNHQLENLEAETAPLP

Sequence of human κ opioid receptor (P41145 whole entry): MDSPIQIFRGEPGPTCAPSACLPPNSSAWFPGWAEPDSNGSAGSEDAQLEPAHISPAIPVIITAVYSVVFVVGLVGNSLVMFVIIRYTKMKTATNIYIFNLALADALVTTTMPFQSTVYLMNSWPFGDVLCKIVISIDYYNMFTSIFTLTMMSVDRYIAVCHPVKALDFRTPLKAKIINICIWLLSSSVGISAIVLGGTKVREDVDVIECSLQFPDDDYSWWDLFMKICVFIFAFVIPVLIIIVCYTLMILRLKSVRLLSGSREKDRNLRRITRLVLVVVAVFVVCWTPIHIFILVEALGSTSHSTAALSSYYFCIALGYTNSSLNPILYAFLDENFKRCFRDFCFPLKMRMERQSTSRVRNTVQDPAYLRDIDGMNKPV
Sequence of human δ opioid receptor (P41143 whole entry): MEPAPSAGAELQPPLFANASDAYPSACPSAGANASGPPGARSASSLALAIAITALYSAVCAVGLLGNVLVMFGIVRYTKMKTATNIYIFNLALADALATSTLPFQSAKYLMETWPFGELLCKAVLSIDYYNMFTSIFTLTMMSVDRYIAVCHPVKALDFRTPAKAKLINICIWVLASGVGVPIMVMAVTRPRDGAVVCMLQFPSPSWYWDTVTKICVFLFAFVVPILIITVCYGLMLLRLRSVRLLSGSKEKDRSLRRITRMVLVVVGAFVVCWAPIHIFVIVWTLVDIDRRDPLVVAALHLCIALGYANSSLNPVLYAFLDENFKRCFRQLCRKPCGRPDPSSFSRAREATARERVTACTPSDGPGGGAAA

Structure (SMILES)	Ki (human κ opioid receptor)	Ki (human δ opioid receptor)	duration of action (antinociception) [1]	Ki (human μ opioid receptor)
CCOc1ccc(-c2ccc(CCNC(=O)c3ccc4c(c3)C3(C)CCN(CC5CC5)C(C4)C3C)cc2)cc1 (racemic) [Compound 4]	3.3 ± 0.32 nM	3.4 ± 0.039 nM		
C[C@H]1C2Cc3ccc(C(N)=O)cc3[C@@]1(C)CCN2CC1CC1 [Compound 8-CAC, 8-carboxamidocyclazocine]			15 h	
C[C@H]1[C@H]2Cc3ccc(O)cc3[C@]1(C)CCN2CC1CC1 [cyclazocine]			2 h	
CC(C)Oc1ccc(-c2ccc(CCNC(=O)c3ccc4c(c3)C3(C)CCN(CC5CC5)C(C4)C3C)cc2)cc1 (racemic) [Compound 5]		1.9 ± 0.21 nM		0.23 ± 0.041 nM
COc1ccc(-c2ccc(CCNC(=O)c3ccc4c(c3)C3(C)CCN(CC5CC5)C(C4)C3C)cc2)cc1C (racemic) [Compound 2]		1.5 ± 0.14 nM		
CC1C2Cc3ccc(C(=O)NCCc4ccc(-c5ccc(C#N)cc5)cc4)cc3C1(C)CCN2CC1CC1 (racemic) [Compound 9]	1 ± 0.095 nM	3 ± 0.11 nM		0.017 ± 0.00075 nM
C[C@H]1C2Cc3ccc(C(=O)NCCc4ccc(-c5ccc(C(N)=O)cc5)cc4)cc3[C@@]1(C)CCN2CC1CC1 (racemic) [Compound 34]	0.91 ± 0.066 nM	1 ± 0.018 nM		0.0052 ± 0.00055 nM
COc1ccc(-c2ccc(CCNC(=O)c3ccc4c(c3)C3(C)CCN(CC5CC5)C(C4)C3C)cc2)c(C)c1 (racemic) [Compound 3]	1.3 ± 0.11 nM	1.1 ± 0.18 nM		0.23 ± 0.0056 nM
COC(=O)c1ccc(-c2ccc(CCNC(=O)c3ccc4c(c3)[C@@]3(C)CCN(CC5CC5)C(C4)[C@@H]3C)cc2)cc1 (racemic) [Compound 36]	1.1 ± 0.13 nM	1.5 ± 0.062 nM		0.0091 ± 0.00071 nM
CC(C)Oc1ccccc1-c1ccc(CCNC(=O)c2ccc3c(c2)C2(C)CCN(CC4CC4)C(C3)C2C)cc1 (racemic) [Compound 7]	1.8 ± 0.17 nM	0.55 ± 0.025 nM		
C[C@H]1C2Cc3ccc(C(=O)NCCc4ccc(-c5ccc(C(=O)O)cc5)cc4)cc3[C@@]1(C)CCN2CC1CC1 (racemic) [Compound 35]	55 ± 4.1 nM	68 ± 9 nM		2.3 ± 0.16 nM
CC(C)Oc1cccc(-c2ccc(CCNC(=O)c3ccc4c(c3)C3(C)CCN(CC5CC5)C(C4)C3C)cc2)c1 (racemic) [Compound 6]	2.4 ± 0.25 nM	3.9 ± 1.4 nM		0.43 ± 0.041 nM
CC1C2Cc3ccc(C(=O)NCCc4ccc(-c5ccc6c(c5)OCO6)cc4)cc3C1(C)CCN2CC1CC1 (racemic) [Compound 8]	0.73 ± 0.049 nM	1 ± 0.12 nM		
CC1C2Cc3ccc(C(=O)NCCc4ccc(-c5ccc(C=O)cc5)cc4)cc3C1(C)CCN2CC1CC1 (racemic) [Compound 10]	1.8 ± 0.038 nM	2.5 ± 0.12 nM		0.002 ± 0.00029 nM
CC1C2Cc3ccc(C(=O)NCCc4ccc(-c5ccc(O)cc5)cc4)cc3C1(C)CCN2CC1CC1 (single isomer, unassigned) [Compound 1A]	0.36 ± 0.018 nM	0.78 ± 0.05 nM		
CC1C2Cc3ccc(C(=O)NCCc4ccc(-c5ccc(O)cc5)cc4)cc3C1(C)CCN2CC1CC1 (racemic) [Compound 1]	0.49 ± 0.011 nM	0.81 ± 0.12 nM		

From patent US8957085B2, “Carboxamide bioisosteres of opiates” (Rensselaer Polytechnic Institute, priority 2010, dated 2015)
